Values of other authors as cited in patent US20200353086A1, “CONTROLLED-RELEASE FORMULATIONS” (CAMURUS AB, priority 2014, published 2020).
*1 amine or outer side, *2 acyl side, *3 side chain or, on linkers, in order; H or OH if unused. Where a SMILES comes first, the peptide text is derived from it. Side-chain parts run from the residue outwards. [ ]: non-standard residue; d: D form. The star is where a group is joined. Ethylenediamine = C(CN[*:2])N[*:1]; Hyp = O=C(O)[C@@H]1C[C@@H](O)CN1; Phg = N[C@H](C(=O)O)c1ccccc1; CO = O=C([*:1])[*:2]; Bn = c1ccc(C*)cc1

How the values were obtained:
[1] = tested on: somatostatin receptors (SSTRs)
[2] = human, single subcutaneous dose

| Compound | biological half-life (natural SST-14) | affinity for somatostatin receptor subtypes [1] | terminal half-life (in vivo) | selectivity between somatostatin receptor subtypes [1] | initial half-life following the peak [2] [h] |
| --- | --- | --- | --- | --- | --- |
| Ala-Gly-Cys-Lys-Asn-Phe-Phe-Trp-Lys-Thr-Phe-Thr-Ser-Cys [SST-14] | 1-3 minutes | equally high affinity |  |  |  |
| C[C@@H](O)[C@@H]1NC(=O)[C@H](CCCCN)NC(=O)[C@@H](Cc2c[nH]c3ccccc23)NC(=O)[C@H](Cc2ccccc2)NC(=O)[C@@H](NC(=O)[C@H](N)Cc2ccccc2)CSSC[C@@H](C(=O)N[C@H](CO)[C@@H](C)O)NC1=O [Octreotide, D-Phe-Cys-Phe-D-Trp-Lys-Thr-Cys-Thr-ol (2-7 disulphide bridge)] |  |  | around 1.7 hours | high selectivity for SSTR2 and SSTRS |  |
| NCCCC[C@@H]1NC(=O)[C@@H](Cc2c[nH]c3ccccc23)NC(=O)[C@H](c2ccccc2)NC(=O)[C@@H]2C[C@@H](OC(=O)NCCN)CN2C(=O)[C@H](Cc2ccccc2)NC(=O)[C@H](Cc2ccc(OCc3ccccc3)cc2)NC1=O [Pasireotide] (cyclo([Hyp]([CO-Ethylenediamine])[Phg][dW]KY(Bn)F)) |  | high affinity for somatostatin receptor subtypes sstr1,2,3 and sstr5 |  |  | 2 to 3 |
